Assay results as given in patent US8877748B2, “Heterocyclic fused anthraquinone derivatives, manufacturing method and pharmaceutical composition using thereof” (National Defense Medical Center, priority 2012, dated 2014).

Experiments:
A549/ATCC = assay: NCI one-dose screening, non-small cell lung cancer A549/ATCC; type: cell-based, human; conditions: 10 μM
MDA, -MB-435 = assay: NCI one-dose screening, breast cancer MDA, -MB-435; type: cell-based, human; conditions: 10 μM; listed under Melanoma
SF-268 = assay: NCI one-dose screening, CNS cancer SF-268; type: cell-based, human; conditions: 10 μM
BT-549 = assay: NCI one-dose screening, breast cancer BT-549; type: cell-based, human; conditions: 10 μM
NCl/ADR-RES = assay: NCI one-dose screening, breast cancer NCl/ADR-RES; type: cell-based, human; conditions: 10 μM; listed under Ovarian cancer
OVCAR-5 = assay: NCI one-dose screening, ovarian cancer OVCAR-5; type: cell-based, human; conditions: 10 μM
RXF, 393 = assay: NCI one-dose screening, renal cancer RXF, 393; type: cell-based, human; conditions: 10 μM
NCI-H522 = assay: NCI one-dose screening, non-small cell lung cancer NCI-H522; type: cell-based, human; conditions: 10 μM
786-O = assay: NCI one-dose screening, renal cancer 786-O; type: cell-based, human; conditions: 10 μM
TK-10 = assay: NCI one-dose screening, renal cancer TK-10; type: cell-based, human; conditions: 10 μM
SK-MEL-5 = assay: NCI one-dose screening, melanoma SK-MEL-5; type: cell-based, human; conditions: 10 μM
UACC-62 = assay: NCI one-dose screening, melanoma UACC-62; type: cell-based, human; conditions: 10 μM
MDA-MB-468 = assay: NCI one-dose screening, breast cancer MDA-MB-468; type: cell-based, human; conditions: 10 μM
EKVX = assay: NCI one-dose screening, non-small cell lung cancer EKVX; type: cell-based, human; conditions: 10 μM
HCT-15 = assay: NCI one-dose screening, colon cancer HCT-15; type: cell-based, human; conditions: 10 μM
PRMI-8226 cell line = assay: NCI one-dose screening, leukemia PRMI-8226; type: cell-based, human; conditions: 10 μM
human tumor cell lines = assay: NCI one-dose screening, Mean / Delta / Range of growth percent over all tested cell lines; type: cell-based; conditions: 10 μM
UACC-257 = assay: NCI one-dose screening, melanoma UACC-257; type: cell-based, human; conditions: 10 μM
HCC-2998 = assay: NCI one-dose screening, colon cancer HCC-2998; type: cell-based, human; conditions: 10 μM
UO-31 = assay: NCI one-dose screening, renal cancer UO-31; type: cell-based, human; conditions: 10 μM
SNB-75 = assay: NCI one-dose screening, CNS cancer SNB-75; type: cell-based, human; conditions: 10 μM
PC-3 = assay: NCI one-dose screening, prostate cancer PC-3; type: cell-based, human; conditions: 10 μM
LOX IMVI = assay: NCI one-dose screening, melanoma LOX IMVI; type: cell-based, human; conditions: 10 μM
KM12 = assay: NCI one-dose screening, colon cancer KM12; type: cell-based, human; conditions: 10 μM
NCI-H460 = assay: NCI one-dose screening, non-small cell lung cancer NCI-H460; type: cell-based, human; conditions: 10 μM
HT29 = assay: NCI one-dose screening, colon cancer HT29; type: cell-based, human; conditions: 10 μM
OVCAR-3 = assay: NCI one-dose screening, ovarian cancer OVCAR-3; type: cell-based, human; conditions: 10 μM
NCI-H23 = assay: NCI one-dose screening, non-small cell lung cancer NCI-H23; type: cell-based, human; conditions: 10 μM
HOP-92 = assay: NCI one-dose screening, non-small cell lung cancer HOP-92; type: cell-based, human; conditions: 10 μM
SF-539 = assay: NCI one-dose screening, CNS cancer SF-539; type: cell-based, human; conditions: 10 μM
CAKI-1 = assay: NCI one-dose screening, renal cancer CAKI-1; type: cell-based, human; conditions: 10 μM
SK-OV-3 = assay: NCI one-dose screening, ovarian cancer SK-OV-3; type: cell-based, human; conditions: 10 μM
SF-295 = assay: NCI one-dose screening, CNS cancer SF-295; type: cell-based, human; conditions: 10 μM
IGROV1 = assay: NCI one-dose screening, ovarian cancer IGROV1; type: cell-based, human; conditions: 10 μM
SN12C = assay: NCI one-dose screening, renal cancer SN12C; type: cell-based, human; conditions: 10 μM
HOP-62 = assay: NCI one-dose screening, non-small cell lung cancer HOP-62; type: cell-based, human; conditions: 10 μM
HL-60, TB = assay: NCI one-dose screening, leukemia HL-60, TB; type: cell-based, human; conditions: 10 μM
DU145 = assay: NCI one-dose screening, prostate cancer DU145; type: cell-based, human; conditions: 10 μM
[1] = NCI one-dose screening, renal cancer A489; type: cell-based, human; conditions: 10 μM
SR = assay: NCI one-dose screening, leukemia SR; type: cell-based, human; conditions: 10 μM
T-47D = assay: NCI one-dose screening, breast cancer T-47D; type: cell-based, human; conditions: 10 μM
COLO 205 = assay: NCI one-dose screening, colon cancer COLO 205; type: cell-based, human; conditions: 10 μM
MCF7 = assay: NCI one-dose screening, breast cancer MCF7; type: cell-based, human; conditions: 10 μM
M14 = assay: NCI one-dose screening, melanoma M14; type: cell-based, human; conditions: 10 μM
ACHN = assay: NCI one-dose screening, renal cancer ACHN; type: cell-based, human; conditions: 10 μM
HCT-116 = assay: NCI one-dose screening, colon cancer HCT-116; type: cell-based, human; conditions: 10 μM
SK-MEL-2 = assay: NCI one-dose screening, melanoma SK-MEL-2; type: cell-based, human; conditions: 10 μM
HS 578-T = assay: NCI one-dose screening, breast cancer HS 578-T; type: cell-based, human; conditions: 10 μM; Breast cancer
SNB-19 = assay: NCI one-dose screening, CNS cancer SNB-19; type: cell-based, human; conditions: 10 μM
MOLT-4 = assay: NCI one-dose screening, leukemia MOLT-4; type: cell-based, human; conditions: 10 μM
OVCAR-8 = assay: NCI one-dose screening, ovarian cancer OVCAR-8; type: cell-based, human; conditions: 10 μM
NCI-H226 = assay: NCI one-dose screening, non-small cell lung cancer NCI-H226; type: cell-based, human; conditions: 10 μM
K562cell line = assay: NCI one-dose screening, leukemia K562; type: cell-based, human; conditions: 10 μM
U251 = assay: NCI one-dose screening, CNS cancer U251; type: cell-based, human; conditions: 10 μM
MALME-3M = assay: NCI one-dose screening, melanoma MALME-3M; type: cell-based, human; conditions: 10 μM
MDA-MB-231/ATCC = assay: NCI one-dose screening, breast cancer MDA-MB-231/ATCC; type: cell-based, human; conditions: 10 μM
[2] = tested on: PC-3 prostate cancer cell line; assay: SRB assay cell viability, PC-3 prostate cancer cell line; type: cell-based, human; conditions: PC-3 prostate cancer cell line, Table II prints no unit, μM printed, read-out: SRB assay: 50% inhibition of cancer cell proliferation of sample concentration (IC50) of PC-3 prostate cancer cell line
SK-MEL-28 = assay: NCI one-dose screening, melanoma SK-MEL-28; type: cell-based, human; conditions: 10 μM

Substance: 4-(o-phenylmethyl thio)anthra[2,1-c] [1,2,5]thiadiazol-6,11-dione [C48]
- Growth Percent A549/ATCC (A549/ATCC): 104.68%
- Growth Percent MDA-MB-435 (MDA, -MB-435): 80.61%
- Growth Percent SF-268 (SF-268): 74.73%
- Growth Percent BT-549 (BT-549): 95.35%
- Growth Percent NCI/ADR-RES (NCl/ADR-RES): 59.53%
- Growth Percent OVCAR-5 (OVCAR-5): 126.28%
- Growth Percent RXF 393 (RXF, 393): 95.88%
- Growth Percent NCI-H522 (NCI-H522): 74.81%
- Growth Percent 786-0 (786-O): 100.36%
- Growth Percent TK-10 (TK-10): 122.97%
- Growth Percent SK-MEL-5 (SK-MEL-5): 87.54%
- Growth Percent UACC-62 (UACC-62): 90.69%
- Growth Percent MDA-MB-468 (MDA-MB-468): 53.68%
- Growth Percent EKVX (EKVX): 104.56%
- Growth Percent HCT-15 (HCT-15): 38.57%
- Growth Percent RPMI-8226 (PRMI-8226 cell line): 48.56%
- Growth Percent Delta (human tumor cell lines; delta over all cell lines): 75.31%
- Growth Percent Mean (human tumor cell lines; mean over all cell lines): 80.61%
- Growth Percent Range (human tumor cell lines; range over all cell lines): 120.98%
- Growth Percent UACC-257 (UACC-257): 87.32%
- Growth Percent HCC-2998 (HCC-2998): 124.00%
- Growth Percent UO-31 (UO-31): 62.14%
- Growth Percent SNB-75 (SNB-75): 76.30%
- Growth Percent PC-3 (PC-3): 73.26%
- Growth Percent LOX IMVI (LOX IMVI): 30.01%
- Growth Percent KM12 (KM12): 103.11%
- Growth Percent NCI-H460 (NCI-H460): 88.86%
- Growth Percent HT29 (HT29): 104.31%
- Growth Percent OVCAR-3 (OVCAR-3): 5.30%
- Growth Percent NCI-H23 (NCI-H23): 53.21%
- Growth Percent HOP-92 (HOP-92): 89.91%
- Growth Percent SF-539 (SF-539): 78.04%
- Growth Percent CAKI-1 (CAKI-1): 81.47%
- Growth Percent SK-OV-3 (SK-OV-3): 93.79%
- Growth Percent SF-295 (SF-295): 104.92%
- Growth Percent IGROV1 (IGROV1): 80.06%
- Growth Percent SN12C (SN12C): 85.97%
- Growth Percent HOP-62 (HOP-62): 59.51%
- Growth Percent HL-60(TB) (HL-60, TB): −79.53%
- Growth Percent DU145 (DU145): 101.53%
- Growth Percent A498 [1]: 85.54%
- Growth Percent SR (SR): 23.00%
- Growth Percent T-47D (T-47D): 51.89%
- Growth Percent COLO 205 (COLO 205): 99.23%
- Growth Percent MCF7 (MCF7): 66.12%
- Growth Percent M14 (M14): 94.25%
- Growth Percent ACHN (ACHN): 89.76%
- Growth Percent HCT-116 (HCT-116): 92.15%
- Growth Percent SK-MEL-2 (SK-MEL-2): 73.29%
- Growth Percent HS 578T (HS 578-T): 83.69%
- Growth Percent SNB-19 (SNB-19): 103.54%
- Growth Percent MOLT-4 (MOLT-4): 67.31%
- Growth Percent OVCAR-8 (OVCAR-8): 76.29%
- Growth Percent NCI-H226 (NCI-H226): 95.71%
- Growth Percent K562 (K562cell line): 32.30%
- Growth Percent U251 (U251): 62.36%
- Growth Percent MALME-3M (MALME-3M): 96.77%
- Growth Percent MDA-MB-231/ATCC (MDA-MB-231/ATCC): 60.72%
- IC50 [2]: > 15 µM
- Growth Percent SK-MEL-28 (SK-MEL-28): 105.73%
